{
  "source": "patent US7169786B2",
  "about": "“Isoxazoline derivatives as anti-depressants” (priority 2001, dated 2007)",
  "key": {"[1]": {"biological_target": "T1, hα2C receptor (Homo sapiens, UniProt P18825)", "T1 construct": "expressed in transfected cells", "T1 sequence (P18825 1-462)": "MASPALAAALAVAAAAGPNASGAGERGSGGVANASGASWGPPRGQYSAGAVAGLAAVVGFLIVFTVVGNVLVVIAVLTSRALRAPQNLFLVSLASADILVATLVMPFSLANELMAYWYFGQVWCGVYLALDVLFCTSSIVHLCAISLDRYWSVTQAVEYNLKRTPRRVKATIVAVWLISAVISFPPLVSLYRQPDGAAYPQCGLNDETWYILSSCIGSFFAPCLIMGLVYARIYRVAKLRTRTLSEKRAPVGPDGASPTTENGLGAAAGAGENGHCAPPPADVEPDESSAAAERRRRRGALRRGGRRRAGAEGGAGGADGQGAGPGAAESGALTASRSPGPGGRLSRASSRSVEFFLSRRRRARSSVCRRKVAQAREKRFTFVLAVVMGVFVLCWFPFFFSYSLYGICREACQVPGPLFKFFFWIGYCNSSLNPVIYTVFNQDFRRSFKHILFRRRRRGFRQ", "experiment": "Radioligand binding experiment for hα2C receptor ([3H]-raulwolscine)", "details": "membranes of CHO cells expressing human α2C receptor, [3H]raulwolscine 1 nM; for IC50: read-out: hα2C pIC50 (converted)", "protocol": "(§1) The interaction of the compounds of Formula (I) with hα2-receptors and h5-HT-transporters was assessed in in vitro radioligand binding experiments. In general, a low concentration of a radioligand with a high binding affinity for a particular receptor or transporter is incubated with a sample of a tissue preparation enriched in a particular receptor or transporter or with a preparation of cells expressing cloned human receptors in a buffered medium. During the incubation, the radioligand binds to the receptor or transporter. When equilibrium of binding is reached, the receptor bound radioactivity is separated from the non-bound radioactivity, and the receptor- or transporter-bound activity is counted. The interaction of the test compounds with the receptor is assessed in competition binding experiments. Various concentrations of the test compound are added to the incubation mixture containing the receptor- or transporter preparation and the radioligand. The test compound in proportion to its binding affinity and its concentration inhibits binding of the radioligand. The radioligand used for hα2A, hα2B and hα2C receptor binding was [^3H]-raulwolscine and for the h5-HT transporter was [^3H]paroxetine.\n(§2) CHO cells, stabile transfected with human adrenergic-α2A-, -α2B or α2C receptor cDNA, were cultured in Dulbecco's Modified Eagle's Medium (DMEM)/Nutrient mixture Ham's F12 (ratio 1:1)(Gibco, Gent-Belgium) supplemented with 10% heat inactivated fetal calf serum (Life Technologies, Merelbeke-Belgium) and antibiotics (100 IU/ml penicillin G, 100 μg/ml streptomycin sulphate, 110 μg/ml pyruvic acid and 100 μg/ml L-glutamine). One day before collection, cells were induced with 5 mM sodiumbutyrate. Upon 80–90% of confluence, cells were scraped in phosphate buffered saline without Ca^2+ and Mg^2+ and collected by centrifugation at 1500×g for 10 min. The cells were homogenised in Tris-HCl 50 mM using an Ultraturrax homogenizer and centrifuged for 10 min at 23,500×g. The pellet was washed once by resuspension and rehomogenization and the final pellet was resuspended in Tris-HCl, divided in 1 ml aliquots and stored at −70° C.\n(§3) Membranes were thawed and re-homogenized in incubation buffer (glycylglycine 25 mM, pH 8.0). […] Filters were rinsed extensively with ice-cold rinsing buffer (Tris-HCl 50 mM pH 7.4). Filter-bound radioactivity was determined by scintillation counting in a Topcount (Packard, Meriden, Conn.) and results were expressed as counts per minute (cpm). Non-specific binding was determined in the presence of 1 μM oxymetazoline for hα2A- and hα2B receptors and 1 μM spiroxatrine for hα2C receptors.\n(§4) Data from assays in the presence of compound were calculated as a percentage of total binding measured in the absence of test compound. Inhibition curves, plotting percent of total binding versus the log value of the concentration of the test compound, were automatically generated, and sigmoidal inhibition curves were fitted using non-linear regression. The pIC50 values of test compounds were derived from individual curves."}, "[2]": {"biological_target": "T2, h5-HT transporter (Homo sapiens, UniProt P31645)", "T2 construct": "Human platelet membranes (Oceanix Biosciences Corporation, Hanover, Md., USA) were thawed; tissue Oceanix Biosciences Corporation, Hanover, Md., USA; host or cells: human platelet membranes", "T2 sequence (P31645 whole entry)": "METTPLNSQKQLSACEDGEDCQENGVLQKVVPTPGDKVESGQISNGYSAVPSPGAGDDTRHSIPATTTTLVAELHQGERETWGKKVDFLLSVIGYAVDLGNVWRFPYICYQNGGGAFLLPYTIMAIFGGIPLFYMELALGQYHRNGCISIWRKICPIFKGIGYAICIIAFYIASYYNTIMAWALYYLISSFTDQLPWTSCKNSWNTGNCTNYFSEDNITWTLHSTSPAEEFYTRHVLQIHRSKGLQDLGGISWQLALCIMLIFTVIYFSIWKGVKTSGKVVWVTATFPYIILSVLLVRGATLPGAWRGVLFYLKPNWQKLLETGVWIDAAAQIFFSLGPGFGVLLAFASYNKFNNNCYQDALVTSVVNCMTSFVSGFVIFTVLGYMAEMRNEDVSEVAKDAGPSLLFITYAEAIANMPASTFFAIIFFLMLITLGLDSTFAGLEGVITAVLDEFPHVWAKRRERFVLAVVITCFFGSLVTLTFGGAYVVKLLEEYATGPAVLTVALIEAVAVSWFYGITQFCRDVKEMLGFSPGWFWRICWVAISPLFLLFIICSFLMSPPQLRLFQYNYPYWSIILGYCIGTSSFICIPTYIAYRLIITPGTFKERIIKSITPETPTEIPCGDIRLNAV", "experiment": "Radioligand binding experiment for 5-HT transporter ([3H]paroxetine, human platelet membranes)", "details": "human platelet membranes, [3H]paroxetine 0.5 nM; for IC50: read-out: 5HTT pIC50 (converted)", "protocol": "as §1\nHuman platelet membranes (Oceanix Biosciences Corporation, Hanover, Md., USA) were thawed, diluted in buffer (Tris-HCl 50 mM, 120 mM NaCl and 5 mM KCl) and quickly (max 3 s) homogenised with an Ultraturrax homogenizer. […] Filters were rinsed extensively with ice-cold buffer and radioactivity on the filters was counted in a Topcount liquid scintillation counter (Packard, Meriden, Conn.). Data were expressed as cpm. Imipramine (at 1 μM final concentration) was used to determine the non-specific binding.\nas §4"}, "[3]": {"biological_target": "T3, hα2A receptor (Homo sapiens, UniProt P08913)", "T3 construct": "expressed in transfected cells", "T3 sequence (P08913 1-465)": "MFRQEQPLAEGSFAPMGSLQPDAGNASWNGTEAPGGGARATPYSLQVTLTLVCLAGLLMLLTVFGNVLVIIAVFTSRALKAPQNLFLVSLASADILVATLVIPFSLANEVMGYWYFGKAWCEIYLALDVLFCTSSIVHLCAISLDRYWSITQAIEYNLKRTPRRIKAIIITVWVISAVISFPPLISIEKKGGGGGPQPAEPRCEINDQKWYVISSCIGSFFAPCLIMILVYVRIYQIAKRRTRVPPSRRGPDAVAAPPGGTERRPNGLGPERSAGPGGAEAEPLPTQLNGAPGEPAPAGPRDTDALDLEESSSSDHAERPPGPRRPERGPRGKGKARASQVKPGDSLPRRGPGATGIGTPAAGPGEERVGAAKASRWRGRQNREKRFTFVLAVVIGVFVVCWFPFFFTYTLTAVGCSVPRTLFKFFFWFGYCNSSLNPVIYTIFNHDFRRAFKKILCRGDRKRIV", "experiment": "Radioligand binding experiment for hα2A receptor ([3H]-raulwolscine)", "details": "membranes of CHO cells expressing human α2A receptor, [3H]raulwolscine 1 nM; for IC50: read-out: hα2A pIC50 (converted)", "protocol": "as §1, §2, §3, §4"}},
  "data": [
    {"smiles": "COc1cc2c(cc1SC)OCC1C2=NOC1CN1CCN(CC(C)=Cc2ccccc2)CC1.O=C(O)C(F)(F)F", "note": "(racemic) [Compound 350]", "values": [
      {"measurement": "hα2C pIC50", "setting": "[1]", "value": 8.68},
      {"measurement": "5HTT pIC50", "setting": "[2]", "value": 7.69},
      {"measurement": "hα2A pIC50", "setting": "[3]", "value": 8.39}
    ]},
    {"smiles": "COc1cc2c(cc1OC)C1=NOC(CN3CCN(C/C=C(\\C)c4ccsc4)CC3)C1CO2", "note": "(single isomer, unassigned) [Compound 323]", "values": [
      {"measurement": "IC50", "setting": "[1]", "value": 9.55, "unit": "nM"},
      {"measurement": "IC50", "setting": "[2]", "value": 15.1, "unit": "nM"},
      {"measurement": "IC50", "setting": "[3]", "value": 6.17, "unit": "nM"}
    ]},
    {"smiles": "COc1cc2c(cc1OC(C)=O)OCC1C2=NOC1CN1CCN(C/C(C)=C/c2cccc(F)c2)CC1", "note": "(single isomer, unassigned) [Compound 334]", "values": [
      {"measurement": "IC50", "setting": "[1]", "value": 2.29, "unit": "nM"},
      {"measurement": "IC50", "setting": "[3]", "value": 2.69, "unit": "nM"}
    ]},
    {"smiles": "COc1cc2c(cc1OCC1CC1)OCC1C2=NOC1CN1CCN(C/C(C)=C/c2ccc(F)cc2)CC1", "note": "(single isomer, unassigned) [Compound 337]", "values": [
      {"measurement": "IC50", "setting": "[3]", "value": 20.9, "unit": "nM"}
    ]},
    {"smiles": "COc1cc2c(cc1OCCN(C)C)OCC1C2=NOC1CN1CCN(C/C(C)=C/c2ccccc2)CC1", "note": "(single isomer, unassigned) [Compound 341]", "values": [
      {"measurement": "IC50", "setting": "[1]", "value": 1.23, "unit": "nM"},
      {"measurement": "IC50", "setting": "[2]", "value": 2.19, "unit": "nM"},
      {"measurement": "IC50", "setting": "[3]", "value": 3.63, "unit": "nM"}
    ]},
    {"smiles": "COCCOCOc1cc2c(cc1OC)C1=NOC(CN3CCN(C/C(C)=C/c4ccccc4)CC3)C1CO2", "note": "(single isomer, unassigned) [Compound 342]", "values": [
      {"measurement": "IC50", "setting": "[1]", "value": 0.162, "unit": "nM"},
      {"measurement": "IC50", "setting": "[2]", "value": 17.4, "unit": "nM"},
      {"measurement": "IC50", "setting": "[3]", "value": 8.51, "unit": "nM"}
    ]},
    {"smiles": "COC(=O)Oc1cc2c(cc1OC)C1=NOC(CN3CCN(C/C(C)=C/c4ccccc4)CC3)C1CO2", "note": "(single isomer, unassigned) [Compound 343]", "values": [
      {"measurement": "IC50", "setting": "[1]", "value": 1.23, "unit": "nM"},
      {"measurement": "IC50", "setting": "[2]", "value": 37.2, "unit": "nM"},
      {"measurement": "IC50", "setting": "[3]", "value": 2.34, "unit": "nM"}
    ]},
    {"smiles": "C=CCOc1cc2c(cc1OC)C1=NOC(CN3CCN(CC(C)=Cc4ccccc4)CC3)C1CO2", "note": "(single isomer, unassigned) [Compound 344]", "values": [
      {"measurement": "hα2C pIC50", "setting": "[1]", "value": 8.68},
      {"measurement": "5HTT pIC50", "setting": "[2]", "value": 8.00},
      {"measurement": "hα2A pIC50", "setting": "[3]", "value": 8.45}
    ]},
    {"smiles": "COc1cc2c(cc1OS(C)(=O)=O)OCC1C2=NOC1CN1CCN(CC(C)=Cc2ccccc2)CC1", "note": "(single isomer, unassigned) [Compound 346]", "values": [
      {"measurement": "hα2C pIC50", "setting": "[1]", "value": 8.91},
      {"measurement": "5HTT pIC50", "setting": "[2]", "value": 8.37},
      {"measurement": "hα2A pIC50", "setting": "[3]", "value": 8.65}
    ]},
    {"smiles": "COc1cc2c(cc1OC(C)=O)OCC1C2=NOC1CN1CCN(C/C=C(\\C)c2ccccc2)CC1", "note": "(single isomer, unassigned) [Compound 358]", "values": [
      {"measurement": "IC50", "setting": "[1]", "value": 3.24, "unit": "nM"},
      {"measurement": "IC50", "setting": "[2]", "value": 37.2, "unit": "nM"},
      {"measurement": "IC50", "setting": "[3]", "value": 1.48, "unit": "nM"}
    ]},
    {"smiles": "COc1cc2c(cc1OC)C1=NOC(CN3CCN(C/C=C(\\C)c4ccccc4F)CC3)C1CO2", "note": "(single isomer, unassigned) [Compound 359]", "values": [
      {"measurement": "IC50", "setting": "[1]", "value": 3.47, "unit": "nM"},
      {"measurement": "IC50", "setting": "[2]", "value": 44.7, "unit": "nM"},
      {"measurement": "IC50", "setting": "[3]", "value": 7.94, "unit": "nM"}
    ]},
    {"smiles": "COc1cc2c(cc1OC)C1=NOC(CN3CCN(C/C=C(\\C)c4ccc(F)cc4)CC3)C1CO2", "note": "(single isomer, unassigned) [Compound 361]", "values": [
      {"measurement": "IC50", "setting": "[1]", "value": 3.09, "unit": "nM"},
      {"measurement": "IC50", "setting": "[2]", "value": 4.17, "unit": "nM"},
      {"measurement": "IC50", "setting": "[3]", "value": 12.6, "unit": "nM"}
    ]},
    {"smiles": "COc1cc2c(cc1OC)C1=NOC(CN3CCN(C/C=C(\\C)c4cccc(Cl)c4)CC3)C1CO2", "note": "(single isomer, unassigned) [Compound 366]", "values": [
      {"measurement": "IC50", "setting": "[1]", "value": 3.31, "unit": "nM"},
      {"measurement": "IC50", "setting": "[2]", "value": 11.5, "unit": "nM"},
      {"measurement": "IC50", "setting": "[3]", "value": 12.9, "unit": "nM"}
    ]}
  ]
}
